Data set [1] concerns human THP-1 macrophages. In words: Internalization of labelled nanoparticles in human THP-1 macrophages (confocal overlay). In kind it is cell-based.
Protocol: For cell culture experiments, human THP-1 macrophages (American Type Culture Collection, Manassas, USA) were maintained in Roswell Park Memorial Institute (RPMI) 1640 media supplemented with 2 mM Glutamine (GIBCO, New York, NY, USA) and 100/fetal bovine serum (FBS, Sigma-Aldrich). The human THP-1 macrophages were sub-cultured once a week and incubated at 37° C. in a humidified atmosphere containing 5% CO2. The human THP-1 macrophages were passaged by centrifugation when reaching a confluency of 10^6 cells/mL. In the following experiments, cell seeding is performed with media enriched with 50 ng/ml phorbol 12-myristate 13-acetate (PMA; Sigma-Aldrich) to allow for adherence of cells over 48 h.
Human THP-1 macrophages were cultured as described above and seeded with a density of 200.000 cells/cm^2 in an 8-well μ-slide (ibidi, Gräfelfing, Germany) for 48 h. Labeled NPs were diluted in RPMI cell culture medium to reach a final concentration of 50 μg/mL. Afterwards 200 μL particle suspension was added to the human THP-1 macrophages. […] The image analysis software Fiji was used for the reconstruction of images, and the plugin “co-localization finder” was used to visualize the overlaying signal in white and quantify the fluorescence overlay of different channels.
Data set [2] relates to human THP-1 macrophages. As to the kind of experiment: LIVE/DEAD cell viability assay of THP-1 macrophages with phagocytosed S. aureus. In kind it is cell-based. The following applies: systemic zinc 75 μM, 24 h. The protocol:
Additionally, a LIVE/DEAD cell viability assay (Invitrogen, Waltham, MA, USA) was used according to the manufacturer's instructions to visualize the cells after 24 h of phagocytosis. In brief, 100 μL of 4 μM Ethidium homodimer 1 and 2 μM calcein AM solution in PBS was added to the human THP-1 macrophages and incubated for 30 min before visualization using a Leica SP8-X DLS Lightsheet microscope (Leica Microsystems, Wetzlar, Germany). Human THP-1 macrophages without phagocytosed S. aureus-mCherry served as negative control. The amount of living cells were quantified by counting using three LIVE/DEAD images and compared between macrophages with and without phagocytosed S. aureus.
The human THP-1 macrophages were allowed to phagocytose S. aureus-mCherry as described above. To investigate the intracellular killing efficiency of the synthesized NPs, RPMI media with 5 μg/ml gentamycin was enriched with 50 μg/ml of synthesized NPs for 24 h. Moreover, to assess the synergistic effect of zinc and vancomycin, a combination of 20 mol % ZnHA and VGelA NPs was added to the co-culture in different concentrations. […] Additionally, the viability of the THP-1 macrophages is assessed using a LIVE/DEAD cell viability assay (Invitrogen, Waltham, MA, USA) as mentioned above. […]

Data set [3] deals with intracellular S. aureus-mCherry. It counts as cell-based, S. aureus strain RN4220. The conditions noted are these: 24 h; for survival of intracellular S. aureus: systemically delivered: dissolved zinc (300 μM), dissolved vancomycin (5.5 μM), versus 'no treatment'.
Protocol: S. aureus strain RN4220 expressing mCherry fluorescent protein (S. aureus-mCherry) was used for in vitro studies. Bacterial inoculums were prepared by culturing S. aureus-mCherry in tryptic soy broth (TSB; BD Difco, Leeuwarden, the Netherlands) supplemented with 10 μg/mL chloramphenicol (Merck) shaking at 120 rpm and 37° C. to the mid logarithmic growth phase. S. aureus-mCherry bacteria were pelleted by centrifugation (3000 g, 10 min), re-suspended in 1 mL of NaCl and 0.25 mL human serum (H1 serum, Bio Whittaker, MD, USA) and incubated for 20 min. The inoculum was adjusted to 10^8 CFU/mL with RPMI based on the optical density value at wavelength 620 (OD620). The human THP-1 macrophages were seeded as described above in 96-well plates at a concentration of 100.000 cells/cm^2. After 48 h, the media was replaced by 1 μL of the bacterial inoculum (bacteria to cell ratio of 1:1) and incubated for 45 min at 37° C. and 5% CO2. Afterwards, the human THP-1 macrophages were washed three times with 50 μL PBS and one time with 200 μL PBS to prevent carry-over of planktonic S. aureus-mCherry. RPMI media supplemented with 5 μg/mL gentamycin (Sigma-Aldrich) was added to control the extracellular growth of S. aureus-mCherry.
The human THP-1 macrophages were allowed to phagocytose S. aureus-mCherry as described above. To investigate the intracellular killing efficiency of the synthesized NPs, RPMI media with 5 μg/ml gentamycin was enriched with 50 μg/ml of synthesized NPs for 24 h. Moreover, to assess the synergistic effect of zinc and vancomycin, a combination of 20 mol % ZnHA and VGelA NPs was added to the co-culture in different concentrations. After 24 h, the human THP-1 macrophages were lysed with 100 μl of 0.025% TritonX-100 to determine the amount of intracellular S. aureus-mCherry number. After lysis, the solution was serial diluted in PBS and spot-plated on agar plates. […] Additionally, the viability of the THP-1 macrophages is assessed using a LIVE/DEAD cell viability assay (Invitrogen, Waltham, MA, USA) as mentioned above. […]

The record followed here is US20260225889A1, “Spherical nanoparticles for improved composite materials” (Stichting Radboud universitair medisch centrum, priority 2023, published 2026).

In the case of FITC-vancomycin, the “internalization by human THP-1 macrophages” value in data set [1] (dissolved, no NPs) is reported as “inability”. Also, the “Overlay (%)” value in data set [1] (fluorescently labelled NPs 50 μg/mL in THP-1 macrophages, confocal co-localization) turned out to be 0%.
For `[Zn]` [zinc], in data set [2], the “amount of alive cells (LIVE/DEAD images)” value is recorded as “visually decreased the amount of alive cells”. In addition, the “survival of intracellular S. aureus” value in data set [3] is on record as “did not cause a significant reduction”. The “effect on intracellular S. aureus survival” value in data set [3] (systemic zinc 75 μM) is recorded as “reduction of intracellular S. aureus survival”.
As for `CN[C@H](CC(C)C)C(=O)N[C@H]1C(=O)N[C@@H](CC(N)=O)C(=O)N[C@H]2C(=O)N[C@H]3C(=O)N[C@H](C(=O)N[C@H](C(=O)O)c4cc(O)cc(O)c4-c4cc3ccc4O)[C@H](O)c3ccc(c(Cl)c3)Oc3cc2cc(c3O[C@@H]2O[C@H](CO)[C@@H](O)[C@H](O)[C@H]2O[C@H]2C[C@](C)(N)[C@H](O)[C@H](C)O2)Oc2ccc(cc2Cl)[C@H]1O` [vancomycin], the “survival of intracellular S. aureus” value in data set [3] is given as “did not cause a significant reduction”.
